Structures can show the parent of a compound that is named as a salt. Where two headings read alike, the source gives them in different places.
Tests used:
[1] = Radiostability (RCP, Met═O by HPLC) of preformed ^177Lu-A with individual amino acids added (Example 1); assay type: physicochemical; details: amino acid 6.6 mg/mL, room temperature; for 0-1 h RCP (%): ^177Lu-A ~20 mCi/mL (3.5 mCi total); for 24-h RCP (%) / 48-h RCP (%): ^177Lu-A ~20 mCi/mL
Method: (§1) The injection volume was 20 μL.
Solutions of the individual amino acids L-Methionine, L-Selenomethionine, L-cysteine HCl.H2O, L-Tryptophan, L-Histidine, and Glycine were prepared at a concentration of 10 mg/mL in 10 mM Dulbecco's phosphate-buffered saline, pH 7.0 [PBS].
The final radioactive concentration of each sample was ˜20 mCi/mL.

[2] = assay type: physicochemical; details: for RCP % t = 0 h: ^177Lu-A (5.28 mCi avg) prepared in presence of stabilizer 3.33 mg/mL; for RCP (%) t = 72 h: ^177Lu-A prepared and stored in presence of stabilizer 3.33 mg/mL, room temperature
Method: 10 mg/mL solutions of thiamine hydrochloride and L-glutathione were prepared by disserving them in water. 10 mg/mL solutions of 3-hydroxycinnamic acid, 4-hydroxyantipyrine and acetylsalicylic acid were prepared by dissolving them in 50% EtOH/water. 10 mg/mL solutions of 2-hydroxybenzothiazole and 2,1,3-benzothiadiazole were prepared by dissolving them in EtOH.

[3] = assay type: physicochemical; details: ^177Lu-A (2.7-3.7 mCi) prepared in presence of 1 mg/mL stabilizer; for RCP % t = 24 h (frozen): 24 h frozen (−10° C.)
Method: The injection volume was 10 μL.
Each individual stabilizer was prepared at a concentration of 1 mg/mL in sodium acetate (NaOAc) buffer (0.2 M, pH 4.8). […] The reaction mixture was heated to 100° C. for 5 minutes, and then cooled for 5 minutes in an ambient-temperature water hath. To each sample, 10 μL of 2% Na2EDTA.2H2in water was added, and then each was divided into two 100-μL aliquots. One aliquot was analyzed by HPLC (Method 5) and then stored at room temperature in a sealed lead container for 24 hours. The other aliquot was stored frozen (−10° C.) for 24 hours. Each sample was analyzed at t=24 h.

[4] = assay type: physicochemical; details: ^177Lu-A (3.6 mCi) prepared in presence of 2.5 mg/mL stabilizer
Method: To lead-shielded 4-mL vials was added 200 μL of the individual NaOAc-stabilizer solutions, 3.58 mCi ^177LuCl3 (avg) and 5.08 μg COMPOUND A (dissolved in water). The ratio of COMPOUND A to Lutetium was 3:1 for all samples. The reaction mixtures were heated to 100° C. for 5 minutes, then cooled, treated with Na2EDTA.2H2O, subdivided and stored as described in Example 9. The radiochemical purity (RCP) percentage data obtained are listed Table 12.

[5] = assay type: physicochemical; details: for Replicate 1 RCP % t = 0 h: ^177Lu-A (3.55 mCi avg) prepared in presence of 5 mg/mL stabilizer, HPLC Method 1, t = 0 h; for Replicate 2 RCP % t = 0 h / Replicate 2 RCP % t = 24 h: ^177Lu-A (4.37 mCi avg) prepared in presence of 5 mg/mL stabilizer; for Replicate 2 RCP % t = 0 h: HPLC Method 2, t = 0 h; for Replicate 2 RCP % t = 24 h: HPLC Method 2, t = 24 h
Method: as §1
Each stabilizer was prepared at a concentration of 5 mg/mL in sodium acetate (NaOAc) buffer (0.2 M, pH 4.8). To lead-shielded 4-mL vials were added 200 μL of the individual stabilizer solutions, 3.55 mCi ^177LuCl3 (avg) and 5.44 μg COMPOUND A (dissolved in water). A second set of replicates of each sample was prepared, using the individual stabilizers. To these was added 4.37 mCi ^177LuCl3 (avg) and 6.7 μg (avg) COMPOUND A (dissolved in water). The ratio of COMPOUND A to lutetium was 3:1 for all samples. The reaction mixture was heated to 100° C. for 5 minutes then cooled for 5 minutes in an ambient-temperature water bath. To each sample, 10 μL of 2% Na2EDTA.2H2O in water was added, then each was analyzed by HPLC (Method 1 for the first set of replicates; Method 2 for the second set of replicates). The second set of replicates were stored and analyzed again at t=24 h.

[6] = assay type: physicochemical
Method: The reaction vial was crimp-sealed and heated at 100° C. for 5 min. […] The sample was stored in an autosampler in which the temperature is ˜6° C. […] than room temperature, and analyzed by RP-HPLC for up to 24 hours.
L-Selenomethionine: ^177Lu-B was prepared, diluted and analyzed as described above, but 5 mg of L-Se-Met was used in place of PDTC, the heating time was 10 minutes, and the quantity of radioactivity used was 52 mCi.
L-cysteine ethyl ester, HCl: ^177Lu-B was prepared, diluted and analyzed as described above, but 5 mg of L-CEE, hydrochloride salt was used in place of PDTC, the heating time was 5 minutes and the quantity of radioactivity used was 50 mCi.
L-cysteine HCl.H2O: ^177Lu-B was prepared, diluted and analyzed as described above, but 5 mg of L-Cys HCl.H2O was used in place of PDTC, the heating time was 8 minutes and the quantity of radioactivity used was 53 mCi.

[7] = assay type: physicochemical; details: for RCP % t = 0 h: ^177Lu-A (5.25 mCi avg) prepared in presence of stabilizer ~3.33 mg/mL
Method: as §1
Ethionamide was prepared at a 10 mg/mL concentration by dissolving it in EtOH. […] Another sample was prepared to which was added 100 μL of ethanol only (no stabilizer), for use as a control sample. […] The reaction mixture was heated to 100° C. for 5 minutes then cooled for 5 minutes in an ambient-temperature water bath. To each sample, 10 μL of 2% Na2EDTA.2H2O in water was added, and then each was analysed by HPLC (Method 2) and stored at room temperature for up to 96 hours.

[8] = assay type: physicochemical; details: ^177Lu-A 13.9 mCi/mL, stabilizer 5 mg/mL added after complex preparation, room temperature
Method: as §1
Compounds containing the —C═S moiety [dithiocarbamates and ethionamide] were examined in this study.
Each individual stabilizer was prepared at a concentration of 10 mg/mL in water. Ethionamide was dissolved in EtOH. […] The reaction mixture was heated to 100° C. for 5 minutes, then cooled for 5 minutes in an ambient-temperature water bath. […] To an aliquot, 100 μL of one of the stabilizer solutions (1 mg of stabilizer) was added. Each aliquot was analyzed (t=0 h) by HPLC (Method 2) and stored at room temperature for 48 hours. All samples were analyzed again at t=24 h and 48 h.

[9] = ^177Lu-A prepared in presence of stabilizer ~3.33 mg/mL, room temperature

SMILES: NCC(=O)O [Glycine]
- 0-1 h RCP (%) [1]: 96.4%
- 24-h RCP (%) [1]: 14.6%
- 48-h RCP (%) [1]: 0%

SMILES: Oc1nc2ccccc2s1 [2-Hydroxybenzothiazole]
- RCP % t = 0 h [2]: 96.2%
- RCP (%) t = 72 h [2]: 9.6%

SMILES: CSCC[C@@H](N)C(=O)O [D-Methionine]
- RCP % t = 24 h (frozen) [3]: 100%
- RCP % t = 24 h (room temp) [3]: 100%
- RCP % t = 0 h [3]: 100%
- RCP % t = 24 h (frozen) [4]: 100%
- RCP % t = 24 h (room temp) [4]: 99.6%
- RCP % t = 0 h [4]: 100%
- Replicate 1 RCP % t = 0 h [5]: 100%
- Replicate 2 RCP % t = 0 h [5]: 97.6%
- Replicate 2 RCP % t = 24 h [5]: 80.7%

SMILES: O=C1O[C@H]([C@@H](O)CO)C([O-])=C1O.[Na+] [Ascorbic acid, Sodium L-ascorbate (Ascorbic acid)]
- RCP % t = 0 h [3]: 98.7%
- RCP % t = 24 h (frozen) [4]: 78.4%
- RCP % t = 24 h (room temp) [4]: 88.1%
- Replicate 1 RCP % t = 0 h [5]: 87.6%
- Replicate 2 RCP % t = 0 h [5]: 30.2%
- Replicate 2 RCP % t = 24 h [5]: 24.5%

SMILES: Cc1ncc(C[n+]2csc(CCO)c2C)c(N)n1 [Thiamine hydrochloride, reference compound]
- RCP % t = 0 h [2]: 97.0%
- RCP (%) t = 72 h [2]: 0%

SMILES: N[C@@H](CS)C(=O)O [L-cysteine, L-cysteine hydrochloride monohydrate]
- RCP % t = 24 h (frozen) [3]: 82.1%
- RCP % t = 24 h (room temp) [3]: 83.3%
- RCP % t = 0 h [3]: 100%
- RCP % t = 24 h (frozen) [4]: 51.0%
- RCP % t = 24 h (room temp) [4]: 88.3%
- RCP % t = 0 h [4]: 100%
- Replicate 1 RCP % t = 0 h [5]: 93.3%
- Replicate 2 RCP % t = 0 h [5]: 91.0%
- Replicate 2 RCP % t = 24 h [5]: 67.4%
- (% RCP) 3-h ([6]; ^177Lu-B (44-53 mCi) formulated with 5 mg stabilizing compound, 3 h): 94.7%
- (% RCP) 6-h ([6]; ^177Lu-B (44-53 mCi) formulated with 5 mg stabilizing compound, 6 h): 87.3%
- (% RCP) 9-h ([6]; ^177Lu-B (44-53 mCi) formulated with 5 mg stabilizing compound, 9 h): 79.4%
- (% RCP) 12-h ([6]; ^177Lu-B (44-53 mCi) formulated with 5 mg stabilizing compound, 12 h): 73.6%
- (% RCP) 24-h ([6]; ^177Lu-B (44-53 mCi) formulated with 5 mg stabilizing compound, 24 h): 50.9%
- (% RCP) 0-h ([6]; ^177Lu-B (44-53 mCi) formulated with 5 mg stabilizing compound, diluted to ~2 mL, ~6° C. above room temperature, 0 h): 99.1%
- RCP Drop over 24 hr ([6]; ^177Lu-B formulated with 5 mg stabilizing compound, 0 to 24 h): 48.2%

SMILES: O=C(O)/C=C/c1cccc(O)c1 [3-Hydroxycinnamic acid]
- RCP % t = 0 h [2]: 96.6%
- RCP (%) t = 72 h [2]: 0%

SMILES: N[C@@H](Cc1c[nH]c2ccccc12)C(=O)O [Tryptophan, L-Tryptophan]
- 0-1 h RCP (%) [1]: 95.5%
- 24-h RCP (%) [1]: 51.4%
- 48-h RCP (%) [1]: 18.2%

SMILES: c1ccc2nsnc2c1 [2,1,3-Benzothiadiazole]
- RCP % t = 0 h [2]: 98.6%
- RCP (%) t = 72 h [2]: 3.1%

SMILES: CC(=O)Oc1ccccc1C(=O)O [Acetylsalicylic acid, Acetylsalicyclic acid, reference compound]
- RCP % t = 0 h [2]: 73.0%
- RCP (%) t = 72 h [2]: 0%

SMILES: CCN(CC)C(=S)S [Sodium diethyldithiocarbamate trihydrate, Diethyldithiocarbamate sodium salt]
- RCP % t = 0 h [7]: 52.8%
- RCP % t = 24 h [7, 9]: 0%
- RCP % t = 0 h [8]: 97.8%
- RCP % t = 24 h [8]: 97.1%
- RCP % t = 48 h [8]: 96.2%

SMILES: Cc1c(O)c(=O)n(-c2ccccc2)n1C [4-Hydroxyantipyrine]
- RCP % t = 0 h [2]: 99.9%
- RCP (%) t = 72 h [2]: 0%

SMILES: N[C@@H](CCC(=O)N[C@@H](CS)C(=O)NCC(=O)O)C(=O)O [L-Glutathione, L-Glutathione, reduced]
- RCP % t = 0 h [2]: 91.1%
- RCP (%) t = 72 h [2]: 0%

SMILES: S=c1[nH]c(=S)[nH]c(=S)[nH]1 [Trithiocyanuric acid trisodium salt nonahydrate]
- RCP % t = 0 h [7]: 100%
- RCP % t = 24 h [7, 9]: 100%
- RCP % t = 96 h ([7]; ^177Lu-A prepared in presence of stabilizer ~3.33 mg/mL, room temperature, 96 h): 0%
- RCP % t = 0 h [8]: 96.9%
- RCP % t = 24 h [8]: 95.9%
- RCP % t = 48 h [8]: 100%

SMILES: N[C@@H](Cc1c[nH]cn1)C(=O)O [Histidine, L-Histidine]
- 0-1 h RCP (%) [1]: 92.5%
- 24-h RCP (%) [1]: 4.6%
- 48-h RCP (%) [1]: 0%

SMILES: O=C([O-])c1cc(O)ccc1O.[Na+] [Gentisic acid, 2,5-Dihydroxybenzoic acid sodium salt hydrate (Gentisic acid)]
- RCP % t = 24 h (frozen) [3]: 84.3%
- RCP % t = 24 h (room temp) [3]: 64.9%
- RCP % t = 0 h [3]: 100%
- RCP % t = 24 h (frozen) [4]: 82.8%
- RCP % t = 24 h (room temp) [4]: 78.6%
- RCP % t = 0 h [4]: 100%
- Replicate 1 RCP % t = 0 h [5]: 93.9%
- Replicate 2 RCP % t = 0 h [5]: 96.6%
- Replicate 2 RCP % t = 24 h [5]: 75.2%
